This note sets out measurements from patent US8497286B2, “Organic compounds” (Novartis AG, priority 2007, dated 2013).

In this experiment the target is recombinant human renin (Homo sapiens (Human), UniProt P00797). The experiment can be described thus: Renin inhibitory activity in vitro, FRET assay (item 2). In kind it is biochemical. The following applies: recombinant human renin 0.5 nM, 2 h at 37° C., pH 7.4, peptide substrate 4 μM. The protocol: Inter alia the following in vitro tests may be used: • 1) Recombinant human renin (expressed in Chinese Hamster Ovary cells and purified using standard methods) at 7.5 nM concentration is incubated with test compound at various concentrations for 1 h at RT in 0.1 M Tris-HCl buffer, pH 7.4, containing 0.05 M NaCl, 0.5 mM EDTA and 0.05% CHAPS. Synthetic peptide substrate […] is added to a final concentration of 2 μM and increase in fluorescence is recorded at an excitation wave-length of 350 nm and at an emission wave-length of 500 nm in a microplate spectro-fluorimeter. IC50 values are calculated from percentage of inhibition of renin activity as a function of test compound concentration (Fluorescence Resonance Energy Transfer, FRET, assay). […] Synthetic peptide substrate […] is added to a final concentration of 4 μM and increase in fluorescence is recorded at an excitation wave-length of 340 nm and at an emission wave-length of 485 nm in a microplate spectro-fluorimeter. IC50 values are calculated from percentage of inhibition of renin activity as a function of test compound concentration (Fluorescence Resonance Energy Transfer, FRET, assay). […] The enzyme reaction is stopped by adding an excess of a blocking inhibitor. The product of the reaction is separated by capillary electrophoresis and quantified by spectrophotometric measurement at […] wave-length. IC50 values are calculated from percentage of inhibition of renin activity as a function of test compound concentration. […] The enzyme reaction is stopped by adding an excess of a blocking inhibitor. The product of the reaction is separated by capillary electrophoresis and quantified by spectrophotometric measurement at […] wave-length. IC50 values are calculated from percentage of inhibition of renin activity as a function of test compound concentration. […] Renin inhibitory activity was assessed in vitro by the method as outlined above in item 2).
recombinant human renin, sequence (P00797 67-406): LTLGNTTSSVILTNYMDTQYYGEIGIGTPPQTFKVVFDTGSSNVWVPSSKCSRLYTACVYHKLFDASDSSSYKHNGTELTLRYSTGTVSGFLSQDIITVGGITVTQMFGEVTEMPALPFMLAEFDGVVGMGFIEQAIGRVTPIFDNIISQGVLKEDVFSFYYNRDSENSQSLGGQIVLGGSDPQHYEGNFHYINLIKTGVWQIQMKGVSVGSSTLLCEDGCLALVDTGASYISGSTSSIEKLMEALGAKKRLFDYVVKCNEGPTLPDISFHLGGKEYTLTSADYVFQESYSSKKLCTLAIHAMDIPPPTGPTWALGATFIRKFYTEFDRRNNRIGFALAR
Consider `CCOC[C@@H](CC(C)C)NC(=O)[C@@H]1CNC[C@H](C(=O)N(CC(C)C)c2cc(OCCCO)c(C(C)C)cn2)[C@@H]1O` [Example 15], for which the IC50 was found to be 6 nM.

Consider `CCOC[C@H](NC(=O)[C@@H]1CNC[C@H](C(=O)N(c2ccc(C(C)C)cn2)C2CC2)[C@@H]1O)C(C)C` [Example 16], for which the concentration for half-maximal inhibition (IC50) was 2.5 nM.

As to `CCOC[C@@H](CC(C)C)NC(=O)[C@@H]1CNC[C@H](C(=O)N(c2cc(OCC)c(CC)cn2)C2CC2)[C@@H]1O` [Example 14], the IC50 is 0.3 nM.

For `COC[C@H]1CC[C@H](NC(=O)[C@@H]2CNC[C@H](C(=O)N(c3cc(OC)c(C(C)C)cn3)C3CC3)[C@@H]2O)CC1` [Example 17], the IC50 stood at 9 nM.

Regarding `CCOC[C@@H](CC(C)C)NC(=O)[C@@H]1CNC[C@H](C(=O)N(c2cc(OC)c(C(C)C)cn2)C2CC2)[C@@H]1O` [Example 13], the half-inhibitory concentration (IC50) was 0.8 nM.

As for `CCOC[C@@H](NC(=O)[C@@H]1CNC[C@H](C(=O)N(c2ccc(C(C)C)cn2)C2CC2)C1)C1CCCCC1` [Example 2], the IC50 amounted to 3 nM.

As to `CCOC[C@@H](CC(C)C)NC(=O)[C@@H]1CNC[C@H](C(=O)N(CC(C)C)c2cc(OCCCOC)c(C(C)C)cn2)C1` [Example 3], the concentration for half-maximal inhibition (IC50) was found to be 0.6 nM.

In the case of `CCOC[C@@H](CC(C)C)NC(=O)[C@@H]1CNC[C@H](C(=O)N(c2ccc(C(C)C)cn2)C2CC2)C1` [Example 1], the IC50 came out at 0.9 nM.

In the case of `CCOC[C@H](NC(=O)[C@@H]1CNC[C@H](C(=O)N(c2cc(OCC)c(CC)cn2)C2CC2)[C@@H]1O)C(C)C` [Example 18], the IC50 is 0.6 nM.

A word on the IC50: it is the point on the concentration scale where inhibition reaches its midpoint.
